Experimental data published in US20160200847A1, “CLICKABLE POLYMERS AND GELS FOR MICROARRAY AND OTHER APPLICATIONS” (priority 2014, published 2016).

Target: T1, Concanavalin A (ConA) (Canavalia ensiformis, UniProt P02866)
T1 construct: purchased Sigma Aldrich
Experiment: Glycan microarray incubated with biotinylated ConA, Cy3-streptavidin fluorescence detection
Format: binding
Details: spotted at 50 μM; 100 ng/ml (0.943 nM) biotinylated ConA; Cy3-labelled streptavidin
Method: Four hundreds pL of each glycan was spotted at 10 μM or 50 μM concentration from an aqueous solution of […] (2.5 mM) and ascorbic acid (12.5 mM). A α-mannoside (10) and β-galactoside (11) were used as positive and negative controls. The immobilization reaction took place during an overnight incubation in a humid chamber at room temperature. The printed slides were sequentially washed with PBS buffer for 10 minutes with DI water and dried by a nitrogen stream. The arrayed slides were then incubated with biotinylated α-mannose-binding lectin Concanavalin A (ConA) in the lectin binding buffer (LBB, 50 mM HEPES, pH 7.4, 5 mM MnCl2, 5 mM CaCl2) in the presence of BSA (0.2 mg/ml). […] A final incubation of 1 h with 2 μg/ml Cyanine3 labelled Streptavidin in PBS (Phosphate Saline Buffer) in a humid chamber at room temperature under static condition enabled the fluorescence detection of the surface bound ConA by means of a scanner (ProScanArray scanner from Perkin Elmer, Boston, Mass., USA) used at 70% of laser power and 60% of photomultiplier (PMT) gain (FIG. 2b). The fluorescence intensities of 11 spot replicates were confirmed by three experiments that provided the same fluorescence intensities for each glycomimetic, with a standard deviation lower than 5%. […]
The graph (b) of FIG. 2 reports the fluorescence intensity observed for different glycan spots. […]

SMILES: OC[C@H]1O[C@@H](O)[C@H](O)[C@@H](O)[C@H]1O [Glycomimetic 11, β-galactose]
- interaction with ConA (spot fluorescence intensity, qualitative): lack of fluorescence
